Assay [1] deals with heart rate and blood pressure. Put plainly: Heart rate and blood pressure changes of rats induced by guaiacoxypropanolamines. It is filed as in vivo. The note with it: 1.0 mg/kg iv, means ± SE (n = 8).
In assay [2] the target is T1, Isolated Guinea Pig Atria (Cavia porcellus, UniProt H0W3H1).
T1 construct: Isolated Guinea Pig Atria; from tissue; host or cells: guinea pig atria (isolated organ)
The assay is described as follows: pA2 on isolated guinea pig atria. It is filed as cell-based. The conditions noted are these: for Kb / pA2, positive chronotropic / pA2, positive inotropic: isolated guinea pig atria; for Potency ratio (PR), positive chronotropic / Potency ratio (PR), positive inotropic: with respect to propranolol.
Description: The determination of the pA2 is made from experiments in which a fixed concentration of the antagonist is used along with graded concentrations of an agonist acting on the same receptor. The presence of the antagonist shifts the agonist dose-response curve to the right.

The mark [3] stands for this setting: read-out: pA2, positive chronotropic (converted).
[4] abbreviates: read-out: pA2, positive inotropic (converted).

SMILES strings stand for the structures. Like-named read-outs stand apart in the source and are kept apart here.

T1 sequence (H0W3H1 1-470): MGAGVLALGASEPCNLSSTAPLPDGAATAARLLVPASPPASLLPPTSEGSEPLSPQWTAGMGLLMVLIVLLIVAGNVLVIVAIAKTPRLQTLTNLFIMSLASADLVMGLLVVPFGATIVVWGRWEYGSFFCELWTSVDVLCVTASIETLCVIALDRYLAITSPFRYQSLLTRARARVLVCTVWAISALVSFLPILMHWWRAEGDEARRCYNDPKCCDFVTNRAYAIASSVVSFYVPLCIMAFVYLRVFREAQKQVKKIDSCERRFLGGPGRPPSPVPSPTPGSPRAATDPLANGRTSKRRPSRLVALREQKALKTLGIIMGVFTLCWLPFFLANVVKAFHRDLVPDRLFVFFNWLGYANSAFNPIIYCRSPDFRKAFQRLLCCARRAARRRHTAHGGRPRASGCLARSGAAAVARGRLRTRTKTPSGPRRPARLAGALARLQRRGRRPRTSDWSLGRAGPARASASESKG

Regarding `CCCCCCCCC(=O)NCc1ccc(OCC(O)CNC2CC2)c(OC)c1` (stereo not drawn) [NH-c-C3 H5, N-[4-o-(2-hydroxy-3-(cyclopropylamino)propoxy)-3-methoxybenzyl]-nonamide], the “change in BP” value in assay [1] (5 min after dosing) is listed as -0.11 ± 1.09 mmHg; in assay [1] (10 min after dosing), 3.11 ± 2.78 mmHg; in assay [1] (15 min after dosing), 3.89 ± 2.92 mmHg; in assay [1] (30 min after dosing) it was 3.67 ± 4.10 mmHg; in assay [1] (60 min after dosing) it was 2.22 ± 2.32 mmHg. Besides, the “change in HR” value is reported as -47.67 ± 8.88 beats/min in assay [1] (5 min after dosing); -38.89 ± 9.47 beats/min in assay [1] (10 min after dosing); -23.67 ± 10.01 beats/min in assay [1] (15 min after dosing); -11.89 ± 8.73 beats/min in assay [1] (30 min after dosing); -2.67 ± 4.14 beats/min in assay [1] (60 min after dosing).

Turning to `CCCCCCCCC(=O)NCc1ccc(OCC(O)CNC2CCCCC2)c(OC)c1` (stereo not drawn) [NH-c-C6 H11, N-[4-o-(2-hydroxy-3-(cyclohexylamino)propoxy)-3-methoxybenzyl]-nonamide], the “change in BP” value is reported as -4.11 ± 2.89 mmHg in assay [1] (5 min after dosing); -4.22 ± 2.29 mmHg in assay [1] (10 min after dosing); -3.67 ± 2.39 mmHg in assay [1] (15 min after dosing); 1.33 ± 2.69 mmHg in assay [1] (30 min after dosing); 0.67 ± 2.45 mmHg in assay [1] (60 min after dosing). Besides, the “change in HR” value in assay [1] (5 min after dosing) is reported as -32.33 ± 15.44 beats/min; in assay [1] (10 min after dosing), -28.44 ± 16.54 beats/min; in assay [1] (15 min after dosing) it was -11.67 ± 9.26 beats/min; in assay [1] (30 min after dosing), -1.78 ± 8.96 beats/min; in assay [1] (60 min after dosing) it was 2.78 ± 9.64 beats/min.

Regarding `CCCCCCCCC(=O)NCc1ccc(OCC(O)CNC(C)C)c(OC)c1` (stereo not drawn) [NH-i-C3 H7, N-[4-o-(2-hydroxy-3-(isopropylamino)propoxy)-3-methoxybenzyl]-nonamide], the “change in BP” value is -0.44 ± 2.05 mmHg in assay [1] (5 min after dosing); -1.22 ± 2.29 mmHg in assay [1] (10 min after dosing); -2.89 ± 2.03 mmHg in assay [1] (15 min after dosing); -6.67 ± 2.51 mmHg in assay [1] (30 min after dosing); -1.33 ± 0.98 mmHg in assay [1] (60 min after dosing). For the same compound, the “change in HR” value in assay [1] (5 min after dosing) is on record as -50.22 ± 7.29 beats/min; in assay [1] (10 min after dosing), -40.78 ± 7.64 beats/min; in assay [1] (15 min after dosing), -35.44 ± 7.32 beats/min; in assay [1] (30 min after dosing) it was -32.67 ± 9.24 beats/min; in assay [1] (60 min after dosing), -20.00 ± 6.15 beats/min. Also, the Kb in assay [2] (setting [3]) is 17 nM; in assay [2] (setting [4]), 8.51 nM. Moreover, the “Potency ratio (PR), positive chronotropic” value in assay [2] came out at 0.45. Also, in assay [2], the “Potency ratio (PR), positive inotropic” value worked out at 0.45.

`CCCCCCCCC(=O)NCc1ccc(OCC(O)CNCC(C)C)c(OC)c1` (stereo not drawn) [NH-i-C4 H9, N-[4-o-(2-hydroxy-3-(iso-butylamino)propoxy)-3-methoxybenzyl]-nonamide]: the “change in BP” value is reported as -2.75 ± 2.29 mmHg in assay [1] (5 min after dosing); 1.63 ± 2.07 mmHg in assay [1] (10 min after dosing); 1.63 ± 1.71 mmHg in assay [1] (15 min after dosing); 2.00 ± 1.86 mmHg in assay [1] (30 min after dosing); 0.25 ± 1.91 mmHg in assay [1] (60 min after dosing). For the same compound, the “change in HR” value in assay [1] (5 min after dosing) was -39.88 ± 8.60 beats/min; in assay [1] (10 min after dosing), -35.25 ± 7.98 beats/min; in assay [1] (15 min after dosing) it was -27.13 ± 7.76 beats/min; in assay [1] (30 min after dosing) it was 4.13 ± 8.20 beats/min; in assay [1] (60 min after dosing), 3.13 ± 7.90 beats/min. Further, the Kb is 117 nM in assay [2] (setting [3]) and 26.9 nM in assay [2] (setting [4]). Further, the “Potency ratio (PR), positive chronotropic” value in assay [2] was determined as 0.06. Moreover, the “Potency ratio (PR), positive inotropic” value in assay [2] came out at 0.14.

`CCCCCCCCC(=O)NCc1ccc(OCC(O)CNCCC)c(OC)c1` (stereo not drawn) [NH-n-C3 H7, N-[4-o-(2-hydroxy-3-(n-propylamino)propoxy)-3-methoxybenzyl]-nonamide]: in assay [1] (5 min after dosing), the “change in BP” value is -1.78 ± 1.71 mmHg and the “change in HR” value is reported as -42.56 ± 7.65 beats/min. In assay [1] (10 min after dosing), the “change in BP” value was -2.56 ± 1.47 mmHg and the “change in HR” value was -35.33 ± 6.05 beats/min. For the same compound, in assay [1] (15 min after dosing), the “change in BP” value is -3.11 ± 1.81 mmHg and the “change in HR” value is -32.00 ± 5.25 beats/min. For the same compound, in assay [1] (30 min after dosing), the “change in BP” value was -2.44 ± 1.66 mmHg and the “change in HR” value is given as -14.11 ± 5.16 beats/min. In assay [1] (60 min after dosing), the “change in BP” value is on record as -0.56 ± 0.50 mmHg and the “change in HR” value was -6.89 ± 4.32 beats/min. For the same compound, in assay [2], the “pA2, positive chronotropic” value turned out to be 6.79 ± 0.01; the “pA2, positive inotropic” value came to 7.75 ± 0.07; the “Potency ratio (PR), positive chronotropic” value is given as 0.05; the “Potency ratio (PR), positive inotropic” value came to 0.21.

In the case of `CCCCCCCCC(=O)NCc1ccc(OCC(O)CNCCCC)c(OC)c1` (stereo not drawn) [NH-n-C4 H9, N-[4-o-(2-hydroxy-3-(n-butylamino)propoxy)-3-methoxybenzyl]-nonamide], the “change in BP” value is reported as -0.22 ± 1.74 mmHg in assay [1] (5 min after dosing); -1.22 ± 1.59 mmHg in assay [1] (10 min after dosing); -1.22 ± 1.77 mmHg in assay [1] (15 min after dosing); 0.11 ± 1.54 mmHg in assay [1] (30 min after dosing); 3.33 ± 2.82 mmHg in assay [1] (60 min after dosing). In addition, the “change in HR” value is -40.00 ± 3.74 beats/min in assay [1] (5 min after dosing); -33.78 ± 5.08 beats/min in assay [1] (10 min after dosing); -26.22 ± 6.56 beats/min in assay [1] (15 min after dosing); -15.33 ± 5.24 beats/min in assay [1] (30 min after dosing); -3.67 ± 2.55 beats/min in assay [1] (60 min after dosing). Further, the Kb in assay [2] (setting [3]) was 58.9 nM; in assay [2] (setting [4]) it was 53.7 nM. Besides, the “Potency ratio (PR), positive chronotropic” value in assay [2] is 0.13. Also, in assay [2], the “Potency ratio (PR), positive inotropic” value is 0.07.

Turning to `CCCCCCCCC(=O)NCc1ccc(OCC(O)CNCCCCC)c(OC)c1` (stereo not drawn) [NH-n-C5 H11, N-[4-o-(2-hydroxy-3-(n-pentylamino)propoxy)-3-methoxybenzyl]-nonamide], the “change in BP” value in assay [1] (5 min after dosing) is -4.67 ± 1.71 mmHg; in assay [1] (10 min after dosing), -1.67 ± 1.87 mmHg; in assay [1] (15 min after dosing), -0.88 ± 3.00 mmHg; in assay [1] (30 min after dosing) it was 3.67 ± 2.66 mmHg; in assay [1] (60 min after dosing), 2.44 ± 1.96 mmHg. Further, the “change in HR” value in assay [1] (5 min after dosing) is recorded as -25.11 ± 5.81 beats/min; in assay [1] (10 min after dosing) it was -23.33 ± 2.41 beats/min; in assay [1] (15 min after dosing) it was -10.22 ± 2.38 beats/min; in assay [1] (30 min after dosing), -5.78 ± 7.89 beats/min; in assay [1] (60 min after dosing), -6.56 ± 4.38 beats/min. The “pA2, positive chronotropic” value in assay [2] was 7.19 ± 0.02. Also, the “pA2, positive inotropic” value in assay [2] is reported as 7.55 ± 0.04. Moreover, the “Potency ratio (PR), positive chronotropic” value in assay [2] came out at 0.12. For the same compound, the “Potency ratio (PR), positive inotropic” value in assay [2] worked out at 0.14.

On to `CCCCCCCCC(=O)NCc1ccc(OCC(O)CNCCCCCC)c(OC)c1` (stereo not drawn) [NH-n-C6 H13, N-[4-o-(2-hydroxy-3-(n-hexylamino)propoxy)-3-methoxybenzyl]-nonamide], for which the “change in BP” value is -2.22 ± 1.42 mmHg in assay [1] (5 min after dosing); -2.89 ± 1.61 mmHg in assay [1] (10 min after dosing); -4.44 ± 2.93 mmHg in assay [1] (15 min after dosing); -2.11 ± 2.77 mmHg in assay [1] (30 min after dosing); 1.89 ± 1.13 mmHg in assay [1] (60 min after dosing). The “change in HR” value in assay [1] (5 min after dosing) is recorded as -35.56 ± 8.71 beats/min; in assay [1] (10 min after dosing), -24.11 ± 3.31 beats/min; in assay [1] (15 min after dosing) it was -14.89 ± 7.10 beats/min; in assay [1] (30 min after dosing) it was -12.67 ± 6.59 beats/min; in assay [1] (60 min after dosing), -8.00 ± 5.64 beats/min. The Kb in assay [2] (setting [3]) was 933 nM; in assay [2] (setting [4]) it was 66.1 nM. Also, the “Potency ratio (PR), positive chronotropic” value in assay [2] is recorded as 0.01. For the same compound, the “Potency ratio (PR), positive inotropic” value in assay [2] stood at 0.06.

For the compound `CCCCCCCCC(=O)NCc1ccc(OCC(O)CNC(C)CC)c(OC)c1` (stereo not drawn) [NH-s-C4 H9, N-[4-o-(2-hydroxy-3-(sec-butylamino)propoxy)-3-methoxybenzyl]-nonamide], the “change in BP” value in assay [1] (5 min after dosing) is 4.11 ± 2.76 mmHg; in assay [1] (10 min after dosing) it was 4.89 ± 3.37 mmHg; in assay [1] (15 min after dosing), 3.33 ± 3.74 mmHg; in assay [1] (30 min after dosing) it was -0.88 ± 3.11 mmHg; in assay [1] (60 min after dosing), 1.22 ± 1.47 mmHg. The “change in HR” value in assay [1] (5 min after dosing) was -38.56 ± 11.30 beats/min; in assay [1] (10 min after dosing) it was -35.44 ± 12.46 beats/min; in assay [1] (15 min after dosing), -32.33 ± 11.96 beats/min; in assay [1] (30 min after dosing), -25.11 ± 9.49 beats/min; in assay [1] (60 min after dosing), -9.56 ± 7.03 beats/min. Besides, the Kb in assay [2] (setting [3]) is 120 nM; in assay [2] (setting [4]), 22.4 nM. In assay [2], the “Potency ratio (PR), positive chronotropic” value amounted to 0.07. Further, in assay [2], the “Potency ratio (PR), positive inotropic” value is listed as 0.17.

Turning to `CCCCCCCCC(=O)NCc1ccc(OCC(O)CNC(C)(C)C)c(OC)c1` (stereo not drawn) [NH-t-C4 H9, N-[4-o-(2-hydroxy-3-(tert-butylamino)propoxy)-3-methoxybenzyl]-nonamide], the “change in BP” value in assay [1] (5 min after dosing) was found to be 3.13 ± 5.66 mmHg; in assay [1] (10 min after dosing) it was 3.38 ± 5.08 mmHg; in assay [1] (15 min after dosing) it was 2.38 ± 5.41 mmHg; in assay [1] (30 min after dosing), 1.25 ± 5.45 mmHg; in assay [1] (60 min after dosing) it was 4.63 ± 3.51 mmHg. Also, the “change in HR” value in assay [1] (5 min after dosing) is on record as -45.00 ± 4.20 beats/min; in assay [1] (10 min after dosing), -37.75 ± 4.44 beats/min; in assay [1] (15 min after dosing), -29.50 ± 5.31 beats/min; in assay [1] (30 min after dosing), -24.88 ± 8.47 beats/min; in assay [1] (60 min after dosing), -18.50 ± 5.13 beats/min. Further, the Kb in assay [2] (setting [3]) is 39.8 nM; in assay [2] (setting [4]), 15.8 nM. Also, in assay [2], the “Potency ratio (PR), positive chronotropic” value was 0.19. Further, in assay [2], the “Potency ratio (PR), positive inotropic” value is 0.24.

For the origin of these results see patent US5804603A, “Synthesized β-adrenergic blockers derivatives of guaiacol” (National Science Council, priority 1995, dated 1998).
